The values below come from patent US8066985B2, “Reovirus for the treatment of cellular proliferative disorders” (Oncolytics Biotech Inc., priority 1999, dated 2011).

Molecules are shown by their SMILES. “Also recorded” adds a separate entry of the source.

Assay [1] has as its system NIH 3T3 cells. Put plainly: 2-aminopurine effect on viral protein synthesis. It counts as cell-based, mouse. The conditions noted are these: 5 mM, concurrently with reovirus; label 12 to 48 h postinfection. How it is done:
To test this idea, 2-aminopurine was used. […] Accordingly, NIH 3T3 cells were exposed to 5 mM 2-aminopurine concurrently with exposure to reovirus. The cells were labeled with [^35S]methionine from 12 to 48 h postinfection, and lysates were harvested and analyzed by SDS-PAGE.

The subject of assay [2] is H-Ras-transformed cells. Put plainly: PD98059 effect on reovirus protein synthesis. It counts as cell-based. The conditions noted are these: 50 μM, MOI approximately 10 p.f.u./cell, label 12 to 48 hours. On the procedure: (§1) H-Ras-transformed cells were grown to 80% confluency and infected with reovirus at an MOI of approximately 10 p.f.u./cell. PD98059 (Calbiochem), dissolved in dimethylsulfoxide (DMSO), was applied to the cells at the same time as the virus (final concentration of PD98059 was 50 μM). The control cells received an equivalent volume of DMSO. The cells were labeled with ^35S-methionine from 12 to 48 hours post-infection. Lysates were then prepared, immunoprecipitated with the polyclonal anti-reovirus serotype 3 serum and analyzed by SDS-PAGE.

Assay [3] has as its system ERK1/2 phosphorylation. The assay can be described thus: PD98059 effect on ERK1/2 phosphorylation. The conditions noted are these: 50 μM. It counts as cell-based.
Description: The PhosphoPlus p44/42 MAP kinase (Thr202/Tyr204) Antibody kit (New England Biolabs) was used for the detection of MAP kinase in cell lysates according to the manufacturer's instructions. Briefly, subconfluent monolayer cultures were lysed with the recommended SDS-containing sample buffer, and subjected to SDS-PAGE, followed by electroblotting onto nitrocellulose paper. The membrane was then probed with the primary antibody (anti-total MAPK or anti-phospho-MAPK), followed by the horseradish peroxidase (HRP)-conjugated secondary antibody as described in the manufacturer's instruction manual.
as §1
As expected, PD98059 had no effect on reovirus-induced PKR phosphorylation in untransformed NIH-3T3 cells (data not shown).

Assay [4] relates to PKR. The assay can be described thus: PD98059 effect on PKR phosphorylation. It counts as cell-based.

Consider `Nc1ncc2[nH]cnc2n1` [2-aminopurine], for which the “level of viral protein synthesis” value in assay [1] is reported as “significantly higher level of viral protein synthesis; also recorded: drastic enhancement of reovirus protein synthesis”.

Turning to `COc1cccc(-c2cc(=O)c3ccccc3o2)c1N` [PD98059], in assay [2], the “effect on viral protein synthesis” value is “slight enhancement of viral protein synthesis” and the “inhibition of reovirus protein synthesis” value is reported as “did not inhibit reovirus protein synthesis”. Also, the ERK1/2 phosphorylation result in assay [3] is “effectively inhibited ERK1/2 phosphorylation”. Further, the PKR phosphorylation state result in assay [4] (infected H-Ras-transformed cells, 50 μM) is recorded as “remained unphosphorylated”. Further, the “effect on reovirus-induced PKR phosphorylation” value in assay [4] (untransformed NIH-3T3 cells) was “no effect”.
